Data: a melting point compilation (Tetko et al.; mined from patent text by program, amines drawn as free bases though some values may be those of a salt)

melting point [°C]	SMILES
128 to 129	CCNc1ccc(C)c(O)c1
215 to 217	Cn1ncnc1-c1oc2cccc(OCCc3ccc(F)cc3)c2c(=O)c1O
154 to 156	COc1ccc(C2=NN(c3cnc4ccccc4n3)C(=O)[C@H]3CC=CC[C@@H]23)cc1OC (relative stereo)
59 to 61	CCC(=O)NCC1CC1c1cccc2nc(C)sc12 (stereo unspecified)
96 to 98	CCCc1c(OCCCOc2ccc3c(c2)CCC(CC(=O)OC)C3=O)ccc(C(C)=O)c1O (stereo unspecified)
162 to 165	CC(=NCCO)C1CCC2C3CCC4CC(O)C(N5CCOC(C)C5)CC4(C)C3CCC12C (stereo unspecified)
109 to 110	CCOC(=O)c1c(Cn2cncn2)nc2sc(C)c(C)c2c1-c1ccc2c(c1)OCO2
94 to 96	COCOc1ccc(C=CC(=O)c2ccc(OCc3ccccc3)cc2OC(C)=O)c(OCc2ccccc2)c1
238 to 240	CC(=O)Oc1ccccc1-c1[nH]c2ccc(Cl)cc2c1-c1ccc(S(C)(=O)=O)cc1
120 to 122	COCOC1=C(C(N)=O)CC(C#N)(c2ccc(OC)c(OCC3CC3)c2)CC1 (stereo unspecified)
117 to 119	N#Cc1ccn(-c2ccc([N+](=O)[O-])cc2F)c1
84 to 86	CCCN(c1ccncc1[N+](=O)[O-])n1ccc2ccccc21
264 to 268	CN(C)C(=O)C1(NS(=O)(=O)c2ccc3c(Cl)cnc(NC(=N)N)c3c2)CCCC1
132 to 133	COc1ccc(-c2cc(=O)n(CC3CC3)nc2-c2ccc(OC)c(F)c2)cc1
163 to 170	N#Cc1ccccc1-c1ccc2[nH]ncc2c1
201 to 203	CC(C)N(Cc1ccc2cc(NC(=O)c3ccc(-c4ccc(Cl)cc4)nc3)ccc2n1)C(C)C
215	COC(=O)c1cccc(NC(=O)NCC(=O)O)c1
232 to 234	Cc1nc(N)nc(N)c1-c1cc(I)ccc1Cl

melting point [°C]	SMILES
231 to 233	CC1CC(=O)NN=C1c1ccc(NCCNC(N)=S)c([N+](=O)[O-])c1 (stereo unspecified)
134 to 135	CSc1nccc(-c2cc(C)ccc2NC(=O)C(C)C)n1
230 to 231	COc1cc2c(cc1-c1ncco1)-c1c(-c3cccs3)c3c(n1CC2)C(=O)N(C(C)(C)C)CCC3
137 to 140	COc1ccc2c(c1)[C@H](CO)OC2=O
141	CC(=O)OC1CSC(Oc2cccc(-c3cccnc3)n2)C(OC(C)=O)C1OC(C)=O (stereo unspecified)
207 to 211	CCCC(=O)Oc1ccc2nc(NC(=O)Nc3ccccc3)sc2c1
200	NS(=O)(=O)CS(=O)(=O)c1ccc(S(=O)(=O)CCCO)cc1
77 to 78	Nc1ncc(CCC2CCCC2)s1
248 to 250	O=C(CO)NNc1ccnc2c(NC(=O)c3c(Cl)cccc3Cl)cccc12
126 to 127	Cc1oc(Cl)cc1C(=O)O
133 to 134	COc1ccccc1COc1cc2c(cc1OC)C(=O)N(Cc1ccccc1OC)CC2
195 to 196	CC(=O)Oc1c(C(C)C)cc(C(=O)Nc2cnc3c(C)cc(C)cc3c2-c2ccccc2Cl)cc1C(C)C
134 to 136	COc1c(Cl)ccc(-c2nc(C(=O)Cl)cc(Cl)c2Cl)c1F
209 to 211	CCc1nc2cc(/C=C/C(=O)NO)ccc2c(=O)n1CCc1ccccc1
95	CCCCCCCCCCCCCCCCC=Cc1ccc(O)c(C(=O)O)c1
140	Cc1ccc(S(=O)(=O)Nc2ccccc2O)cc1
154 to 155	N#CC1=C(Nc2ccc(Cl)cc2[N+](=O)[O-])CSC1
193 to 194	Cc1ncccc1CC(=NC#N)NC1CCCc2ccccc21 (stereo unspecified)

Second part, the molecule before the results:

SMILES	melting point [°C]
O=C(C=Cc1cccnc1)NCCCCC1CCN(C2c3ccccc3CSc3ccccc32)CC1 (stereo unspecified)	89 to 91
Clc1cccc2c(CN3CC=C(c4ccc5[nH]ccc5c4)CC3)n[nH]c12	164 to 167
Oc1ccccc1-c1cc(-c2ccc(F)c(F)c2)cc(-c2ccco2)n1	147 to 148
CC(=NNC(=O)OC1CC(C)CCC1C(C)C)c1ccncc1 (stereo unspecified)	188
CCCCCCC(C)(C)c1cc(OCc2ccccc2)c(C2=C(CC(=O)O)CCC(C)C2)c(OCc2ccccc2)c1 (stereo unspecified)	69 to 70
CC(C)(C)[Si](C)(C)N1C(=O)C[C@H]1CI	71 to 72
CC1(C)CCC(C)(C)c2cc(-c3cc(-c4ccc(CO)cc4)ccc3-c3ccccc3)ccc21	134 to 136
CC(C)c1cccc(C(C)C)c1NC(=O)C1c2ccccc2COc2ccc(CO)cc21 (stereo unspecified)	157 to 158
CN1CCN=C(c2ccc([N+](=O)[O-])cc2)C1=O	191 to 192
CCc1oc(-c2ccc(C(F)(F)F)cc2)cc1C=O	95 to 96
Cc1cccc(Cl)c1NC(=O)Nc1cc(N[C@H]2CC[C@H](O[Si](C)(C)C(C)(C)C)CC2)ncn1	218 to 220
O=c1[nH]c2cc(Cl)ccc2n1CCO	176 to 178
CC(C)(C)c1cc(CCc2ccccc2NC(=O)NCCCc2ccccc2)cc(C(C)(C)C)c1O	161 to 162
C=C(C)C(=O)OCc1ccc(OC2CCCCO2)cc1 (stereo unspecified)	36 to 36.7
COc1cccc(F)c1-n1nnc2cc(C(C)(C)C)c(OCc3ncnn3C)nc21	116 to 118
O=c1[nH]c2ccccc2n1CCN1CCNCC1	123
CN1CC2Cc3ccc(Cl)cc3C(C)(O)C2C1 (stereo unspecified)	125 to 130
CC1(C)C(=O)N(c2ccc(C#N)c(C(F)(F)F)c2)C(=S)N1CCCCO	78 to 79

SMILES	melting point [°C]
CC(C#N)c1ccc(Cl)nn1 (stereo unspecified)	65
CC(=O)OCC1OC(OC2C(COC(C)=O)OC(OCCBr)C(OC(C)=O)C2OC(C)=O)C(OC(C)=O)C(OC(C)=O)C1OC(C)=O (stereo unspecified)	151 to 152
CC(C)(C)OC(=O)COc1ccc(/C=C/C(=O)C(F)(F)F)cc1	112 to 113
CC(C)C(=O)CC1NC(=O)c2ccsc2-n2cccc21 (stereo unspecified)	160
COC(=O)c1cccc2[nH]c(=O)c(C(=O)c3ccccc3)c(O)c12	263 to 265
COc1ccc(-c2cc(COS(C)(=O)=O)c(=O)n(Cc3ccc(F)c(F)c3)n2)cc1F	146 to 147
Cc1cc(CN2C(=O)C3(COc4cc5c(cc43)OCO5)c3ccccc32)c(C)n1C(C)C (stereo unspecified)	169 to 171
NS(=O)(=O)c1ccc(NN=Cc2ccc(Cl)cc2)cc1	181 to 182
CCOC(=O)c1c(O)c2cc(Cl)ccc2c(=O)n1C	110 to 111
CS(=O)(=O)Nc1ccc(OCC2CCN(c3cc([N+](=O)[O-])ccn3)CC2)cc1	184
CC(=NOCc1ccc(OCc2nc(-c3ccccc3)oc2C)cc1)C(=O)O	147 to 148
O=C(Nc1cc(S(=O)(=O)NCCO)sc1Cl)c1cnn2c(C(F)F)cc(-c3ccc(C(F)(F)F)cc3)nc12	209
COP1(=O)CC(O)C(Cl)C1 (stereo unspecified)	82
Nc1c(F)c(F)nc(F)c1Cl	118 to 120
NC(=O)[C@@H]1[C@H](Nc2nc(Nc3ccc4c(c3)CCC(NCC(F)F)CC4)ncc2Cl)[C@H]2C=C[C@@H]1C2 (stereo partly specified)	128
CCC1C(c2ccc(OC(Cl)C(=O)O)cc2Cl)=CC(=O)CC1C (stereo unspecified)	183
NC(=O)NC[C@@H]1CCCc2cc(S(=O)(=O)c3cccc(F)c3)ccc21	155 to 156
